Assay results reported in patent publication US20240317714A1, “3-[(1H-PYRAZOL-R-YL)OXY]PYRAZIN-2-AMINE COMPOUNDS AS HPK1 INHIBITOR AND USE THEREOF” (BeiGene, Ltd., priority 2020, published 2024).

Legend:
[1] = tested on: pSLP76(S376) level in Jurkat cell line; test: Cellular pSLP76(S376) HTRF Assay; format: cell-based; conditions: Homo sapiens, Jurkat, Jurkat cells, 2 h compound treatment, stimulated with 0.05 μg/mL anti-human CD3 (OKT3) for 30 min
[2] = biological target: HPK1 kinase (aal-346. Life Technologies) (Homo sapiens (Human), UniProt Q92918); test: HPK Kinase Activity Assay at 1 mM ATP (TR-FRET); format: biochemical; conditions: HPK1 kinase 40 nM, 0.5 μM STK1 substrate, read-out: Enzymatic activity IC50
Chain of HPK1 kinase (aal-346. Life Technologies) (Q92918 1-346): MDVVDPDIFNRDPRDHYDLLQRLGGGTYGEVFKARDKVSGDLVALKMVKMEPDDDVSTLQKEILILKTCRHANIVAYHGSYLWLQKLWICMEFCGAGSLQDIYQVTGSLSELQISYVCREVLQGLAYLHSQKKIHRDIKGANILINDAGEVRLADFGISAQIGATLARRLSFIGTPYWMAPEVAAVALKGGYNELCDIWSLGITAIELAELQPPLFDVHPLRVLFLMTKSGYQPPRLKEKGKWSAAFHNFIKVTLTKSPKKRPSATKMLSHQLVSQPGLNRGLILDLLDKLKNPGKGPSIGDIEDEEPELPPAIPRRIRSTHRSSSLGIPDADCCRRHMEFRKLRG

SMILES	IC50 [1] [nM]	IC50 [2] [nM]
Cc1cc(-c2cnc(N)c(Oc3cnn(C4CCN(C)CC4)c3)n2)cc(C)c1C1(O)COC1 [Example A63, 3-(4-(5-amino-6-((1-(1-methylpiperidin-4-yl)-1H-pyrazol-4-yl)oxy)pyrazin-2-yl)-2,6-dimethylphenyl)oxetan-3-ol]	102	39
CC1OCCC1(O)c1cc(-c2cnc(N)c(Oc3cnn(C4CCN(C)CC4)c3)n2)cc(N2CCOC[C@H]2C)c1 (stereo partly drawn) [Example A94, 3-(3-(5-amino-6-((1-(1-methylpiperidin-4-yl)-1H-pyrazol-4-yl)oxy)pyrazin-2-yl)-5-((R)-3-methylmorpholino)phenyl)-2-methyltetrahydrofuran-3-ol]	119	15
CCC(C)(O)c1cc(C)cc(-c2cnc(N)c(Oc3cnn(C4CCN(C)CC4)c3)n2)c1 (stereo not drawn) [Example A70, 2-(3-(5-amino-6-((1-(1-methylpiperidin-4-yl)-1H-pyrazol-4-yl)oxy)pyrazin-2-yl)-5-methylphenyl)butan-2-ol]	76	6.7
Cc1cc(-c2cnc(N)c(Oc3cnn(C4CCN(C)CC4)c3)n2)cc([C@]2(O)CCOC2)c1N1CCOCC1 [Example A97B, (R)-3-(5-(5-amino-6-((1-(1-methylpiperidin-4-yl)-1H-pyrazol-4-yl)oxy)pyrazin-2-yl)-3-methyl-2-morpholinophenyl)tetrahydrofuran-3-ol]	154	30
Cc1cc(-c2cnc(N)c(Oc3cnn(C4CCN(C)CC4)c3)n2)cc(C2(O)CCOC2)c1N1CC2(COC2)C1 (stereo not drawn) [Example A83, 3-(5-(5-amino-6-((1-(1-methylpiperidin-4-yl)-1H-pyrazol-4-yl)oxy)pyrazin-2-yl)-3-methyl-2-(2-oxa-6-azaspiro[3.3]heptan-6-yl)phenyl)tetrahydrofuran-3-ol]	105	17
CNS(=O)(=O)c1cc(C)cc(-c2cnc(N)c(Oc3cnn(C4CCN(C)CC4)c3)n2)c1 [Example A2, 3-(5-amino-6-((1-(1-methylpiperidin-4-yl)-1H-pyrazol-4-yl)oxy)pyrazin-2-yl)-N,5-dimethylbenzenesulfonamide]	34	14
CNC(=O)NCc1ccc(-c2cnc(N)c(Oc3cnn(C4CCN(C)CC4)c3)n2)cc1C [Example A47, 1-(4-(5-amino-6-((1-(1-methylpiperidin-4-yl)-1H-pyrazol-4-yl)oxy)pyrazin-2-yl)-2-methylbenzyl)-3-methylurea]	183	68
Cc1cc(-c2cnc(N)c(Oc3cnn(C4CCN(C)CC4)c3)n2)cc([Si](C)(C)O)c1 [Example A50, (3-(5-amino-6-((1-(1-methylpiperidin-4-yl)-1H-pyrazol-4-yl)oxy)pyrazin-2-yl)-5-methylphenyl)dimethylsilanol]	95	18
CNS(=O)(=O)c1cc(-c2cnc(N)c(Oc3cnn(C4CCN(C)CC4)c3)n2)cc(C)c1C [Example A8, 5-(5-amino-6-((1-(1-methylpiperidin-4-yl)-1H-pyrazol-4-yl)oxy)pyrazin-2-yl)-N,2,3-trimethylbenzemesulfonamide]	30	8
Cc1cc(-c2cnc(N)c(Oc3cnn(C4CCN(C)CC4)c3)n2)ccc1CNS(C)(=O)=O [Example A46, N-(4-(5-amino-6-((1-(1-methylpiperidin-4-yl)-1H-pyrazol-4-yl)oxy)pyrazin-2-yl)-2-methylbenzyl)methanesulfonamide]	98	51
CNS(=O)(=O)c1cc(-c2cnc(N)c(Oc3cnn(C4CCN(C)CC4)c3)n2)cc(N2CCOCC2)c1 [Example A42, 3-(5-amino-6-((1-(1-methylpiperidin-4-yl)-1H-pyrazol-4-yl)oxy)pyrazin-2-yl)-N-methyl-5-morpholinobenzenesulfonamide]	82	19
Cc1cc(-c2cnc(N)c(Oc3cnn(C4CCN(C)CC4)c3)n2)cc(C)c1CNc1cnn(C)c1 [Example A57, 5-(3,5-dimethyl-4-(((1-methyl-1H-pyrazol-4-yl)amino)methyl)phenyl)-3-((1-(1-methylpiperidin-4-yl)-1H-pyrazol-4-yl)oxy)pyrazin-2-amine]	76	24
CNS(=O)(=O)c1cc(-c2cnc(N)c(Oc3cnn(C4CCN(C)CC4)c3)n2)cc(F)c1C [Example A18, 5-(5-amino-6-((1-(1-methylpiperidin-4-yl)-1H-pyrazol-4-yl)oxy)pyrazin-2-yl)-3-fluoro-N,2-dimethylbenzenesulfonamide]	47	100
Cc1cc(-c2cnc(N)c(Oc3cnn(C4CCN(C)CC4)c3)n2)cc(C)c1CNS(=O)(=O)c1ccccc1 [Example A38, N-(4-(5-amino-6-((1-(1-methylpiperidin-4-yl)-1H-pyrazol-4-yl)oxy)pyrazin-2-yl)-2,6-dimethylbenzyl)benzenesulfonamide]	125	37
CCNC(=O)NCc1c(C)cc(-c2cnc(N)c(Oc3cnn(C4CCN(C)CC4)c3)n2)cc1C [Example A36, 1-(4-(5-amino-6-((1-(1-methylpiperidin-4-yl)-1H-pyrazol-4-yl)oxy)pyrazin-2-yl)-2,6-dimethylbenzyl)-3-ethylurea]	54	22
CONC(=O)c1c(C)cc(-c2cnc(N)c(Oc3cnn(C4CCN(C)CC4)c3)n2)cc1C [Example A21, 4-(5-amino-6-((1-(1-methylpiperidin-4-yl)-1H-pyrazol-4-yl)oxy)pyrazin-2-yl)-N-methoxy-2,6-dimethylbenzamide]	188	104
Cc1cc(-c2cnc(N)c(Oc3cnn(C4CCN(C)CC4)c3)n2)cc(C2(O)CCOC2)c1 (stereo not drawn) [Example A69, 3-(3-(5-amino-6-((1-(1-methylpiperidin-4-yl)-1H-pyrazol-4-yl)oxy)pyrazin-2-yl)-5-methylphenyl)tetrahydrofuran-3-ol]	84	57
C[C@@H]1COCCN1c1cc(-c2cnc(N)c(Oc3cnn(C4CCN(C)CC4)c3)n2)cc(C2(O)COC2)n1 [Example B4, (R)-3-(4-(5-amino-6-(1-(1-methylpiperidin-4-yl)-1H-pyrazol-4-yloxy)pyrazin-2-yl)-6-(3-methylmorpholino)pyridin-2-yl)oxetan-3-ol]	102	31
Cc1cc(-c2cnc(N)c(Oc3cnn(C4CCN(C)CC4)c3)n2)cc(C)c1C(=O)NCCN(C)C [Example A1, 4-(5-amino-6-((1-(1-methylpiperidin-4-yl)-1H-pyrazol-4-yl)oxy)pyrazin-2-yl)-N-(2-(dimethylamino)ethyl)-2,6-dimethylbenzamide]	93	47
CNS(=O)(=O)c1cc(-c2cnc(N)c(Oc3cnn(C4CCN(C)CC4)c3)n2)cc(N2CCOC[C@H]2C)c1 [Example A49, (R)-3-(5-amino-6-((1-(1-methylpiperidin-4-yl)-1H-pyrazol-4-yl)oxy)pyrazin-2-yl)-N-methyl-5-(3-methylmorpholino)benzenesulfonamide]	82	11
Cc1cc(-c2cnc(N)c(Oc3cnn(C4CCN(C)CC4)c3)n2)cc(C)c1CNC(=O)NC(C)(C)C [Example A53, 1-(4-(5-amino-6-((1-(1-methylpiperidin-4-yl)-1H-pyrazol-4-yl)oxy)pyrazin-2-yl)-2,6-dimethylbenzyl)-3-(tert-butyl)urea]	63	16
